Experimental findings from patent US11382889B2, “NRF2 activators for the prevention and/or treatment of axonal degeneration” (priority 2018, dated 2022) are described below.

The assay deals with X-ALD fibroblasts. The experiment in a line: NRF2 response (HMOX1, NQO1, GCLC expression) in X-ALD patient fibroblasts incubated with excess VLCFA. The class given is cell-based, human. The following applies: normalized to RPLP0, fold change to vehicle. As to the method:
This means that the NRF-2 target genes HMOX1, NQO1 and GCLC increase their expression when incubated with excess VLCFA. See FIG. 4 (n=8 per genotype and condition). Gene expression normalized relative to RPLP0. Quantification depicted as fold change to vehicle-treated (Veh) fibroblasts.

`Cn1cc(C2=C(c3ccc(Cl)cc3Cl)C(=O)NC2=O)c2ccccc21` [SB216763]: the “NRF2 response: expression of NRF-2 target genes HMOX1, NQO1 and GCLC” value is reported as “restore a normal NRF2 response”.

On to `Cc1c[nH]c(-c2cnc(NCCNc3ccc(C#N)cn3)nc2-c2ccc(Cl)cc2Cl)n1` [CT99021], for which the “NRF2 response: expression of NRF-2 target genes HMOX1, NQO1 and GCLC” value was “restore a normal NRF2 response”.
